The values below are quoted from earlier work in patent US20040197429A1, “Selective COX-2 inhibition from plant extracts” (Pharmacia Corporation, priority 2000, published 2004).

The data set has as its system COX-1 and COX-2. To be noted: background.

`CC(=O)Oc1ccccc1C(=O)O` [aspirin]: the “effectiveness inactivating COX-1 as opposed to COX-2” value is listed as 10 to 100 times.
